These results are taken from US20220098203A1 (priority 2018, published 2022).

Read-outs that look alike come from different tables or passages of the source.

Assay [1] has as its system HCT116 MTAP+/+. The assay is described as follows: Inhibition of cellular proliferation (Cell Titer Glo), HCT116 MTAP+/+. The assay is classed as cell-based. Conditions: Homo sapiens, HCT-116, 96 h, Table 5a, 4 days, read-out: 4 Day Relative Growth Inhibition (MTAP +/+). On the procedure:
(§1) Test compound impact on cancer cell growth was assessed by treating cancer cells with compound for 4 days and then measuring proliferation using an ATP-based cell proliferation readout (Cell Titer Glo, Promega Corporation).
(§2) In a typical assay an isogenic pair of HCT116 human colon carcinoma cell lines which vary only in MTAP deletion status (HCT116 MTAP+/+ and HCT116 MTAP−/−) were plated in 96-well dishes at appropriate cell density. Following 24 hours, cells were then treated with the candidate MAT2A inhibitor. […] Compound was then transferred to a working stock plate in cell culture media by adding 5 μL of compound in DMSO to 495 μL of cell culture media. This working stock was then added to cells via a further 5-fold dilution, by adding 25 μL of working stock to 100 μL of cells in culture media. Following compound addition, cells were incubated at 37° C./5% CO2 for 4 days.
(§3) The plate was then covered with aluminum foil and shaken for 15 minutes to ensure complete mixing and full cell lysis. […] This luminescence measure was converted to a proliferation index by subtracting from each data point the ATP luminescence signal measured from a bank (no cells) well and dividing by the ATP luminescence signal measured in 0.2% DMSO control well adjusted for signal in blank well.

Assay [2] has as its target T1, MAT2A homodimer (Homo sapiens, UniProt P31153).
T1 construct: inferred from the Ni sepharose purification and imidazole elution; made in house; host or cells: SF9 insect cells, recombinant baculovirus (Bac to Bac, pFASTBAC1)
Put plainly: MAT2A biochemical assay (liberated phosphate, PiColorLock Gold). Conditions: Table 5a; MAT2A biochemical assay; read-out: Enzyme Inhibition. In outline: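 Baculovirus/Sf9-expressed, Ni-purified MAT2A homodimer preincubated with compound 60 min at 25 °C, then reacted 60 min at 25 °C with substrate mix of 500 μM ATP and 400 μM L-methionine, pH 7.0 (mix, not final levels). Phosphate released with SAM measured by PiColorLock Gold against phosphate standard curve.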

Assay [3] has as its system HCT116 MTAP-/-. The assay is described as follows: Inhibition of cellular proliferation (Cell Titer Glo), HCT116 MTAP-/-. It is filed as cell-based, human. Conditions: 4 days, read-out: 4 Day Relative Growth Inhibition (MTAP −/−). On the procedure:
as §1, §2, §3

Assay [4] concerns SAM in HCT116 MTAP-deleted cells. The assay is described as follows: Cellular assay of target engagement (SAM), LC-MS/MS. The assay is classed as cell-based, human. The settings on record: 72 h, read-out: Cell 72 h SAM Inhibition (MTAP −/−). How it is done:
Measurement of MAT2A activity in cells was made by direct quantitation of the abundance of the product of its enzymatic activity, SAM. Cancer cells were treated with candidate MAT2A inhibitors for a suitable incubation period, and the cells were then lysed using a reagent which quenched any further enzyme activity. Soluble metabolites including SAM were collected and SAM itself was directly measured from the lysate using quantitative LC-MS/MS.
A typical assay was performed using an HCT116 human colon carcinoma cell line which was genetically engineered to delete the MTAP gene (commercially available from Horizon Discovery). […] Cells were plated in 96-well dishes at appropriate cell density. Following 24 hours, cells were then treated with the candidate MAT2A inhibitor. […] Compound was then transferred to a working stock plate in cell culture media by adding 5 μL of compound in DMSO to 495 μL of cell culture media. This working stock was then added to cells via a further 5-fold dilution, by adding 25 μL of working stock to 100 μL of cells in culture media. Following compound addition, cells were incubated at 37° C./5% CO2 for 72 hrs.
To quantitate SAM levels following compound treatment, cells were gently washed once in ammonium carbonate buffer (75 mM at pH 7.4), placed on dry ice, and lysed with metabolite extraction buffer (80% cold methanol and 20% water (v/v) with acetic acid at 1M final concentration with 200 ng/mL deuterated d3-SAM as internal control). Following centrifugation at 4° C. at 3,200 rpm for 30 minutes, the supernatant was collected and stored at −80° C. until analysis by Liquid Chromatography with tandem Mass Spectrometry (LC-MS/MS). LC-MS/MS analysis was performed using an API6500 Mass Spectrometer (Sciex, Framingham, Mass., USA) operating in positive ion spray mode and equipped with a Waters UPLC Acquity (Waters, Milford, Mass., USA) BEH Amide column.

Setting [5] is: Homo sapiens, HCT-116, 96 h, Table 5a.
Where [6] appears, read: Homo sapiens, HCT-116, Table 5a.
Where [7] appears, read: Table 6, select pairs of compounds.

T1 sequence (P31153 whole entry): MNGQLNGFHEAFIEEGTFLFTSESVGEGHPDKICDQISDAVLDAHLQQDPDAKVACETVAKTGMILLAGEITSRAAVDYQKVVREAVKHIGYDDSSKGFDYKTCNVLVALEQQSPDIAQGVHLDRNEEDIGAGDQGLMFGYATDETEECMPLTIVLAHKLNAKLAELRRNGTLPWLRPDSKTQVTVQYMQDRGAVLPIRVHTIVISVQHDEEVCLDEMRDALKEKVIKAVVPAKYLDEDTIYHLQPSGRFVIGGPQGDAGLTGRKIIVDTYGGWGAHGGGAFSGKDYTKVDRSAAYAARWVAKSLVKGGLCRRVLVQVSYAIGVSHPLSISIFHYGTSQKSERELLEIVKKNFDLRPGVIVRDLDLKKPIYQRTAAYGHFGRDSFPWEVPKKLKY

Consider `CCOc1ccc2c(n1)N(c1ccc(OC)cc1)C(=O)N(c1ccc3ncn(C)c3c1)C2` [Example 138, 7-ethoxy-1-(4-methoxyphenyl)-3-(1-methyl-1H-benzo[d]imidazol-6-yl)-3,4-dihydropyrido[2,3-d]pyrimidin-2(1H)-one], for which the IC50 in assay [1] was above 1000 nM; in assay [2], below 100 nM; in assay [3] (setting [5]) it was 100 to 1000 nM; in assay [4] (setting [6]) it was below 100 nM.

As to `COc1ccc(N2C(=O)N(c3ccc4ncn(C)c4c3)Cc3ccc(OCC(F)F)nc32)cc1` [Example 139, 7-(2,2-difluoroethoxy)-1-(4-methoxyphenyl)-3-(1-methyl-1H-benzo[d]imidazol-6-yl)-3,4-dihydropyrido[2,3-d]pyrimidin-2(1H)-one], the IC50 in assay [1] was above 1000 nM; in assay [2], below 100 nM; in assay [3] (setting [5]), below 100 nM; in assay [4] (setting [6]) it was below 100 nM.

On to `Cn1cnc2ccc(N3Cc4ccc(OCC(F)F)nc4N(c4ccc(OC(F)F)cc4)C3=O)cc21` [Example 140, 7-(2,2-difluoroethoxy)-1-(4-(difluoromethoxy)phenyl)-3-(1-methyl-1H-benzo[d]imidazol-6-yl)-3,4-dihydropyrido[2,3-d]pyrimidin-2(1H)-one], for which the IC50 in assay [1] is above 1000 nM; in assay [2] it was below 100 nM; in assay [3] (setting [5]), below 100 nM; in assay [4] (setting [6]), below 100 nM.

Turning to `COc1ccc(N2C(=O)N(c3ccc4nn(C)cc4c3)Cc3ccc(OCC(F)F)nc32)cc1` [Example 141, 7-(2,2-difluoroethoxy)-1-(4-methoxyphenyl)-3-(2-methyl-2H-indazol-5-yl)-3,4-dihydropyrido[2,3-d]pyrimidin-2(1H)-one], the IC50 is 100 to 1000 nM in assay [1], below 100 nM in assay [2], below 100 nM in assay [3] (setting [5]) and below 100 nM in assay [4] (setting [6]).

Take `CCOc1ccc2c(n1)N(c1ccc(OC)nc1)C(=O)N(c1ccc3nn(C)cc3c1)C2` [Example 142, 7-ethoxy-1-(6-methoxypyridin-3-yl)-3-(2-methyl-2H-indazol-5-yl)-3,4-dihydropyrido[2,3-d]pyrimidin-2(1H)-one]: the IC50 in assay [1] was above 1000 nM; in assay [2], below 100 nM; in assay [3] (setting [5]) it was 100 to 1000 nM; in assay [4] (setting [6]), below 100 nM.

Consider `CCOc1ccc2c(n1)N(c1ccc(OC)cc1)C(=O)N(c1ccc3nn(C)cc3c1)C2` [Example 143, 7-ethoxy-1-(4-methoxyphenyl)-3-(2-methyl-2H-indazol-5-yl)-3,4-dihydropyrido[2,3-d]pyrimidin-2(1H)-one], for which the IC50 is above 1000 nM in assay [1], below 100 nM in assay [2], 100 to 1000 nM in assay [3] (setting [5]) and below 100 nM in assay [4] (setting [6]).

Consider `Cn1cc2cc(N3Cc4ccc(OC5CC5)nc4N(c4ccc(OC(F)F)cc4)C3=O)ccc2n1` [Example 144, 7-cyclopropoxy-1-(4-(difluoromethoxy)phenyl)-3-(2-methyl-2H-indazol-5-yl)-3,4-dihydropyrido[2,3-d]pyrimidin-2(1H)-one], for which the IC50 is above 1000 nM in assay [1], below 100 nM in assay [2], 100 to 1000 nM in assay [3] (setting [5]) and below 100 nM in assay [4] (setting [6]).

As to `Cn1cc2cc(N3Cc4ccc(OCC(F)F)nc4N(c4ccc(OC(F)F)cc4)C3=O)ccc2n1` [Example 145, 7-(2,2-difluoroethoxy)-1-(4-(difluoromethoxy)phenyl)-3-(2-methyl-2H-indazol-5-yl)-3,4-dihydropyrido[2,3-d]pyrimidin-2(1H)-one], the IC50 in assay [1] was above 1000 nM; in assay [2] it was below 100 nM; in assay [3] (setting [5]) it was below 100 nM; in assay [4] (setting [6]), below 100 nM.

As to `CCOc1ccc2c(n1)N(c1ccc(Cl)cc1)C(=O)N(c1ccc3nn(C)cc3c1)C2` [Example 146, 1-(4-chlorophenyl)-7-ethoxy-3-(2-methyl-2H-indazol-5-yl)-3,4-dihydropyrido[2,3-d]pyrimidin-2(1H)-one], the IC50 was above 1000 nM in assay [1], below 100 nM in assay [2], 100 to 1000 nM in assay [3] (setting [5]) and below 100 nM in assay [4] (setting [6]).

In the case of `CCOc1ccc2c(n1)N(c1ccc(OC(F)(F)F)nc1)C(=O)N(c1ccc3nn(C)cc3c1)C2` [Example 147, 7-ethoxy-3-(2-methyl-2H-indazol-5-yl)-1-(6-(trifluoromethoxy)pyridin-3-yl)-3,4-dihydropyrido[2,3-d]pyrimidin-2(1H)-one], the IC50 in assay [1] is above 1000 nM; in assay [2] it was below 100 nM; in assay [3] (setting [5]), 100 to 1000 nM; in assay [4] (setting [6]), 100 to 1000 nM.

`CCOc1ccc2c(n1)N(c1ccc(C(F)F)nc1)C(=O)N(c1ccc3nn(C)cc3c1)C2` [Example 149, 1-(6-(difluoromethyl)pyridin-3-yl)-7-ethoxy-3-(2-methyl-2H-indazol-5-yl)-3,4-dihydropyrido[2,3-d]pyrimidin-2(1H)-one]: the IC50 in assay [1] was above 1000 nM; in assay [2], below 100 nM; in assay [3] (setting [5]), below 100 nM; in assay [4] (setting [6]) it was 100 to 1000 nM.

`CCOc1ccc2c(n1)N(c1ccc(C3CC3)nc1)C(=O)N(c1ccc3nn(C)cc3c1)C2` [Example 152, 1-(6-cyclopropylpyridin-3-yl)-7-ethoxy-3-(2-methyl-2H-indazol-5-yl)-3,4-dihydropyrido[2,3-d]pyrimidin-2(1H)-one]: the IC50 in assay [1] was above 1000 nM; in assay [2], below 100 nM; in assay [3] (setting [5]), 100 to 1000 nM; in assay [4] (setting [6]) it was below 100 nM.

As to `CCOc1ccc2c(n1)N(c1ccc(-c3nnc[nH]3)cc1)C(=O)N(c1ccc3nn(C)cc3c1)C2` [Example 153, 1-(4-(4H-1,2,4-triazol-3-yl)phenyl)-7-ethoxy-3-(2-methyl-2H-indazol-5-yl)-3,4-dihydropyrido[2,3-d]pyrimidin-2(1H)-one], the IC50 in assay [1] was above 1000 nM; in assay [2] it was below 100 nM; in assay [3] (setting [5]), below 100 nM; in assay [4] (setting [6]) it was below 100 nM.

As to `CCOc1ccc2c(n1)N(c1ccc(-c3nnc[nH]3)cc1)C(=O)N(c1ccc3ncn(C)c3c1)C2` [Example 154, 1-(4-(4H-1,2,4-triazol-3-yl)phenyl)-7-ethoxy-3-(1-methyl-1H-benzo[d]imidazol-6-yl)-3,4-dihydropyrido[2,3-d]pyrimidin-2(1H)-one], the IC50 in assay [1] is 100 to 1000 nM; in assay [2], below 100 nM; in assay [3] (setting [5]), 100 to 1000 nM; in assay [4] (setting [6]) it was below 100 nM.

`CCOc1ccc2c(n1)N(c1ccc(-c3nnc[nH]3)cc1)C(=O)N(c1ccc(OC)cc1)C2` [Example 155, 1-(4-(4H-1,2,4-triazol-3-yl)phenyl)-7-ethoxy-3-(4-methoxyphenyl)-3,4-dihydropyrido[2,3-d]pyrimidin-2(1H)-one]: the IC50 in assay [1] is 100 to 1000 nM; in assay [2] it was below 100 nM; in assay [3] (setting [5]), 100 to 1000 nM; in assay [4] (setting [6]), below 100 nM.

Consider `COc1ccc(N2C(=O)N(c3ccc4nn(C)cc4c3)Cc3ccc(SCC(F)(F)F)nc32)cc1` [Example 161, 1-(4-methoxyphenyl)-3-(2-methyl-2H-indazol-5-yl)-7-((2,2,2-trifluoroethyl)thio)-3,4-dihydropyrido[2,3-d]pyrimidin-2(1H)-one], for which the IC50 in assay [1] was above 1000 nM; in assay [2], below 100 nM; in assay [3] (setting [5]), 100 to 1000 nM; in assay [3] (setting [7]), 100 to 1000 nM; in assay [4] (setting [6]), 100 to 1000 nM; in assay [4] (setting [7]), 100 to 1000 nM.
